Measurements: PubChem BioAssay (NCI)
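Dose response: 5 concentrations. Exposure: 48 h. Format: 96-well plates. Endpoint: linear interpolation; highest concentration if not reached. At the TGI there is no net growth.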

How the values were obtained:
Test in all cases: NCI anticancer screen, dose series, 48 h
[1] = test system: DU-145 prostate
[2] = test system: SF-295 CNS
[3] = test system: SNB-75 CNS
[4] = test system: NCI-H226 lung
[5] = test system: OVCAR-3 ovarian
[6] = test system: NCI-H460 lung
[7] = test system: NCI/ADR-RES ovarian
[8] = test system: HCC-2998 colon
[9] = test system: HT29 colon
[10] = test system: SK-MEL-28 melanoma
[11] = test system: RXF 393 renal
[12] = test system: HOP-92 NSCLC
[13] = test system: RPMI-8226 leukemia
[14] = test system: NCI-H522 lung
[15] = test system: MALME-3M melanoma
[16] = test system: SR leukemia
[17] = test system: K-562 leukemia
[18] = test system: HS 578T breast
[19] = test system: MCF7 breast
[20] = test system: OVCAR-8 ovarian
[21] = test system: 786-0 renal
[22] = test system: MOLT-4 leukemia
[23] = test system: SF-539 CNS
[24] = test system: T-47D breast
[25] = test system: IGROV1 ovarian
[26] = test system: SF-268 CNS
[27] = test system: CAKI-1 renal
[28] = test system: UACC-257 melanoma
[29] = test system: SNB-19 CNS
[30] = test system: A549 NSCLC
[31] = test system: NCI-H23 lung
[32] = test system: ACHN renal
[33] = test system: SW-620 colon
[34] = test system: SN12C renal
[35] = test system: OVCAR-4 ovarian
[36] = test system: SK-OV-3 ovarian
[37] = test system: SK-MEL-2 melanoma
[38] = test system: TK-10 renal
[39] = test system: UACC-62 melanoma
[40] = test system: M14 melanoma
[41] = test system: HCT-116 colon
[42] = test system: PC-3 prostate
[43] = test system: BT-549 breast
[44] = test system: KM12 colon
[45] = test system: HCT-15 colon
[46] = test system: OVCAR-5 ovarian
[47] = test system: COLO 205 colon
[48] = test system: MDA-N
[49] = test system: CCRF-CEM leukemia
[50] = test system: EKVX NSCLC
[51] = test system: SK-MEL-5 melanoma
[52] = test system: U251 CNS
[53] = test system: HL-60(TB) leukemia
[54] = test system: UO-31 renal
[55] = test system: MDA-MB-231 breast
[56] = test system: MDA-MB-435

Measured: TGI

N#Cc1c(N)c2c(c(-c3ccccc3)c1-c1ccccc1)C(=O)N(N)C2=O
> 100 µM: all assays above
